The results in this text go back to ChEMBL document CHEMBL4402609, “Optimization of Hydantoins as Potent Antimycobacterial Decaprenylphosphoryl-β-d-Ribose Oxidase (DprE1) Inhibitors” (J Med Chem, 2020).

In general, Cmax refers to the peak of the concentration-time curve. A word on the AUC: it is the area under the concentration-time curve, a measure of exposure. Low readings indicate less exposure, high ones more exposure. What is called chromatographic logD is lipophilicity estimated from chromatographic retention. Low readings indicate lower lipophilicity, high ones higher lipophilicity.

The nature of data set [1]: Cmax in C57BL/6J mouse blood infected with Mycobacterium tuberculosis H37Rv at 170 mg/kg, po administered once daily for 4 consecutive days starting from 5 days post infection. Type of data set: ADME, organism-based. Also noted: dose 170 mg/kg, route oral.
Data set [2] in a line: AUC in C57BL/6J mouse blood infected with Mycobacterium tuberculosis H37Rv at 170 mg/kg, po administered once daily for 4 consecutive days starting from 5 days post infection and measured up to 6 hrs post dose. The data set is classed as ADME, organism-based. Details: time < 6 hr, dose 170 mg/kg, route oral.
Data set [3] is described as follows: Intrinsic clearance in human microsomes assessed as per gram protein at 0.5 uM after 30 mins in presence of NADPH by LC-MS/MS analysis. The data set is classed as ADME, Microsome. As to conditions: 0.5 h.
Data set [4] is described as follows: Lipophilicity, log D of compound at pH 7.4 by chromatographic method. Type of data set: physicochemical. The conditions noted are these: buffer.
The nature of data set [5]: Cmax in C57BL/6J mouse blood infected with Mycobacterium tuberculosis H37Rv at 200 mg/kg, po administered once daily for 4 consecutive days starting from 5 days post infection. Type of data set: ADME, organism-based. Also noted: dose 200 mg/kg, route oral.
Data set [6] is described as follows: AUC in C57BL/6J mouse blood infected with Mycobacterium tuberculosis H37Rv at 200 mg/kg, po administered once daily for 4 consecutive days starting from 5 days post infection and measured after 24 hrs post dose. Type of data set: ADME, organism-based. Details: dose 200 mg/kg, time < 24 hr, route oral.
Data set [7] is described as follows: Intrinsic clearance in mouse microsomes assessed as per gram protein at 0.5 uM after 30 mins in presence of NADPH by LC-MS/MS analysis. The data set is classed as ADME, Microsome. The conditions noted are these: 0.5 h.

Turning to `CC1(c2ccc(-n3cnnn3)cc2)NC(=O)N(CC(=O)c2ccc(F)cc2F)C1=O` (configuration not stated), the concentration in data set [1] peaked (Cmax) at 1870 ng/mL. The same molecule showed an exposure (AUC) at 6 h in data set [2] of 6380 ng·h/mL.

With `CC1(c2ccc(S(N)(=O)=O)cc2)NC(=O)N(CC(=O)c2ccc(F)cc2F)C1=O` (racemic), the clearance was less than 0.4 mL/min/g in data set [3] and 2.67 mL/min/g in data set [7]. The chromatographic logD in data set [4] turned out to be 3.19. In addition, the peak level in data set [5] (Cmax) was 6380 ng/mL. In data set [6], this molecule returned an area under the curve (AUC) at 24 h of 31400 ng·h/mL.
